Results as given in ChEMBL document CHEMBL6074683, “Design, synthesis and investigation of biological activity and mechanism of fluoroaryl-substituted derivatives at the FL118 position 7” (Eur J Med Chem, 2025).
Active and inactive are the calls of the source. No cut-off for these calls is given here.

Tests used:
HepG2 = assay: Cytotoxicity against human HepG2 cells incubated for 72 hrs by MTT assay; type: functional, cell-based; conditions: HepG2, 72 h
A549 = assay: Cytotoxicity against human A549 cells incubated for 72 hrs by MTT assay; type: functional, cell-based; conditions: A549, 72 h
HeLa = assay: Cytotoxicity against human HeLa cells incubated for 72 hrs by MTT assay; type: functional, cell-based
HCT-116 [1] = assay: Cytotoxicity against human HCT-116 cells incubated for 72 hrs by MTT assay; type: functional, cell-based; conditions: HCT-116, 72 h
[2] = Apparent permeability across apical to basolateral side in human Caco-2 cells measured upto 120 mins by LC-MS/MS method; type: ADME, cell-based
[3] = Efflux ratio of apparent permeability across basolateral to apical over apical to basolateral side in human Caco-2 cells; type: ADME, cell-based
PDX27454 [4] = assay: Antitumor activity against human PDX27454 cells xenografted in SCID mouse at 2 to 15 mg/kg, ip administered weekly for 4 weeks; type: functional, organism-based; conditions: dose 2-15 mg/kg
[5] = Toxicity in SCID mouse assessed as change in body weight at 2 to 15 mg/kg, ip administered weekly for 4 weeks; type: organism-based; conditions: in vivo, 672 h, dose 2-15 mg/kg
HCT-116 [6] = assay: Downregulation of DDX5 protein expression in human HCT-116 cells at 100 nM incubated upto 72 hrs by Western blotting assay; type: functional, cell-based
PDX27454 [7] = assay: Antitumor activity against human PDX27454 cells xenografted in SCID mouse at 15 mg/kg, ip administered weekly for 4 weeks; type: functional, organism-based
PDX27454 [8] = assay: Antitumor activity against human PDX27454 cells xenografted in ip dosed SCID mouse administered weekly for 4 weeks and measured after 35 days; type: functional, organism-based; conditions: dose 2-15 mg/kg
HCT-116 [9] = assay: Inhibition of colony formation in human HCT-116 cells incubated for 12 hrs by crystal violet staining based assay; type: functional, cell-based; conditions: dose 5-25 nM
HCT-116 [10] = assay: Induction of ROS generation in human HCT-116 cells incubated for 72 hrs by DCFH-DA staining based assay; type: functional, cell-based; conditions: dose 5-100 nM
HCT-116 [11] = assay: Induction of ROS generation in human HCT-116 cells incubated for 12 hrs by DCFH-DA staining based assay; type: functional, cell-based
HCT-116 [12] = assay: Induction of apoptosis in human HCT-116 cells assessed as viable cells at 2.5 nM incubated for 48 hrs by PI/Annexin V-FITC staining based flow cytometry assay (reference value: 93%); type: functional; conditions: read-out: Activity
HCT-116 [13] = assay: Induction of apoptosis in human HCT-116 cells assessed as early apoptotic cells at 2.5 nM incubated for 48 hrs by PI/Annexin V-FITC staining based flow cytometry assay (reference value: 0.27%); type: functional
HCT-116 [14] = assay: Induction of apoptosis in human HCT-116 cells assessed as late apoptotic cells at 2.5 nM incubated for 48 hrs by PI/Annexin V-FITC staining based flow cytometry assay (reference value: 4.02%); type: functional
HCT-116 [15] = assay: Induction of apoptosis in human HCT-116 cells assessed as necrotic cells at 2.5 nM incubated for 48 hrs by PI/Annexin V-FITC staining based flow cytometry assay (reference value: 2.58%); type: functional
HCT-116 [16] = assay: Induction of apoptosis in human HCT-116 cells assessed as viable cells at 10 nM incubated for 48 hrs by PI/Annexin V-FITC staining based flow cytometry assay (reference value: 93%); type: functional; conditions: read-out: Activity
HCT-116 [17] = assay: Induction of apoptosis in human HCT-116 cells assessed as early apoptotic cells at 10 nM incubated for 48 hrs by PI/Annexin V-FITC staining based flow cytometry assay (reference value: 0.27%); type: functional
HCT-116 [18] = assay: Induction of apoptosis in human HCT-116 cells assessed as late apoptotic cells at 10 nM incubated for 48 hrs by PI/Annexin V-FITC staining based flow cytometry assay (reference value: 4.02%); type: functional
HCT-116 [19] = assay: Induction of apoptosis in human HCT-116 cells assessed as necrotic cells at 10 nM incubated for 48 hrs by PI/Annexin V-FITC staining based flow cytometry assay (reference value: 2.58%); type: functional
HCT-116 [20] = assay: Induction of apoptosis in human HCT-116 cells assessed as viable cells at 50 nM incubated for 48 hrs by PI/Annexin V-FITC staining based flow cytometry assay (reference value: 93%); type: functional; conditions: read-out: Activity
HCT-116 [21] = assay: Induction of apoptosis in human HCT-116 cells assessed as early apoptotic cells at 50 nM incubated for 48 hrs by PI/Annexin V-FITC staining based flow cytometry assay (reference value: 0.27%); type: functional
HCT-116 [22] = assay: Induction of apoptosis in human HCT-116 cells assessed as late apoptotic cells at 50 nM incubated for 48 hrs by PI/Annexin V-FITC staining based flow cytometry assay (reference value: 4.02%); type: functional
HCT-116 [23] = assay: Induction of apoptosis in human HCT-116 cells assessed as necrotic cells at 50 nM incubated for 48 hrs by PI/Annexin V-FITC staining based flow cytometry assay (reference value: 2.58%); type: functional
HCT-116 [24] = assay: Downregulation of XIAP protein level in human HCT-116 cells at 50 to 100 nM incubated for 72 hrs by Western blotting assay; type: functional, cell-based; conditions: dose 50-100 nM
HCT-116 [25] = assay: Downregulation of Bcl-2 protein level in human HCT-116 cells at 50 to 100 nM incubated for 72 hrs by Western blotting assay; type: functional, cell-based; conditions: dose 50-100 nM
HCT-116 [26] = assay: Downregulation of survivin protein level in human HCT-116 cells at 50 to 100 nM incubated for 72 hrs by Western blotting assay; type: functional, cell-based; conditions: dose 50-100 nM
HCT-116 [27] = assay: Upregulation of Bax protein level in human HCT-116 cells incubated for 72 hrs by Western blotting assay; type: functional, cell-based; conditions: dose 50-100 nM
HCT-116 [28] = assay: Upregulation of gammaH2AX protein level in human HCT-116 cells incubated for 72 hrs by Western blotting assay; type: functional, cell-based; conditions: dose 50-100 nM
[29] = target: T1, DNA topoisomerase 1 (Homo sapiens) (UniProt P11387); assay: Inhibition of topoisomerase 1 (unknown origin) using pBR322 DNA as substrate by ethidium bromide staining based agarose gel electrophoresis method
T1 sequence (whole entry): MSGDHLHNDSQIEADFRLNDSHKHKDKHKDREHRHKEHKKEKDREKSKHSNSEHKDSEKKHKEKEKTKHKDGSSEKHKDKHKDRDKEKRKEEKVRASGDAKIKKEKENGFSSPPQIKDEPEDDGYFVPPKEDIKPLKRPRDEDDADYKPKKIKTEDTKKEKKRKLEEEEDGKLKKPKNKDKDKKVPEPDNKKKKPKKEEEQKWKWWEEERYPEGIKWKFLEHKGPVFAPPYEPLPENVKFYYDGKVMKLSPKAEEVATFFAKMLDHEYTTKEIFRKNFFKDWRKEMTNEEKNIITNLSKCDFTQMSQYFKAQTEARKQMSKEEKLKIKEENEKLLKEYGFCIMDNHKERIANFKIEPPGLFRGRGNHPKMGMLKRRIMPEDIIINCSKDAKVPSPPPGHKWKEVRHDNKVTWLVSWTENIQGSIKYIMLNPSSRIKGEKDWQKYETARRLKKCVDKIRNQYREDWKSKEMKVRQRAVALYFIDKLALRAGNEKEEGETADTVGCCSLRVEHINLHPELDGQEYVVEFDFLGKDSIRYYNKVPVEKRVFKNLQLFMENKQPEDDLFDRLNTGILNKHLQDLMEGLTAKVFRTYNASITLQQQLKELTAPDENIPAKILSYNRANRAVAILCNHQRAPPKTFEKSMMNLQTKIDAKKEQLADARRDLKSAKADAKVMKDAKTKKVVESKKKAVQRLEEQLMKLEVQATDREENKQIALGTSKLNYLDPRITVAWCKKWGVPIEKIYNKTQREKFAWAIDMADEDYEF

[30] = target: T1, DNA topoisomerase 1 (Homo sapiens); assay: Inhibition of topoisomerase 1 (unknown origin) using pBR322 DNA as substrate in presence of DDX5 by ethidium bromide staining based agarose gel electrophoresis method
[31] = target: T1, DNA topoisomerase 1 (Homo sapiens); assay: Inhibition of topoisomerase 1 (unknown origin) assessed as reduction in nicking of supercoiled DNA at 5 to 50 uM using pBR322 DNA as substrate by ethidium bromide staining based agarose gel electrophoresis method; conditions: dose 5-50 µM
[32] = target: T1, DNA topoisomerase 1 (Homo sapiens); assay: Inhibition of topoisomerase 1 (unknown origin) assessed as reduction in nicking of supercoiled DNA at 0.05 to 0.5 uM using pBR322 DNA as substrate by ethidium bromide staining based agarose gel electrophoresis method; conditions: dose 0.05-0.5 µM

With `CC[C@@]1(O)C(=O)OCc2c1cc1n(c2=O)Cc2c-1nc1cc3c(cc1c2-c1ccc(C)c(F)c1)OCO3` the IC50 (HepG2) was 36.9 nM, the IC50 (A549) was 48.2 nM and the IC50 (HeLa) was 22.1 nM. For the same compound, the IC50 (HCT-116 [1]) was 50.3 nM.

`CC[C@@]1(O)C(=O)OCc2c1cc1n(c2=O)Cc2cc3cc4c(cc3nc2-1)OCO4` showed an IC50 (HepG2) of 68.5 nM, an IC50 (A549) of 81.8 nM and an IC50 (HeLa) of 34.7 nM. It also gave an IC50 (HCT-116 [1]) of 66.5 nM, a Papp A→B at 2 h [2] of 6.97 ×10⁻⁶ cm/s and an efflux ratio [3] of 1.2.

In the case of `CC[C@@]1(O)C(=O)OCc2c1cc1n(c2=O)Cc2c-1nc1cc3c(cc1c2-c1cc(C)cc(F)c1)OCO3`, the IC50 (HepG2) is reported as 56 nM, the IC50 (A549) is reported as 30.6 nM and the IC50 (HeLa) is reported as 56.5 nM. The IC50 (HCT-116 [1]) was 41.4 nM.

`CC[C@@]1(O)C(=O)OCc2c1cc1n(c2=O)Cc2c-1nc1cc3c(cc1c2-c1cc(F)cc(F)c1)OCO3` gave an IC50 (HepG2) of 41.4 nM, an IC50 (A549) of 49.5 nM and an IC50 (HeLa) of 35.6 nM. The IC50 (HCT-116 [1]) was 48 nM, the Activity (PDX27454 [4]) was “Active” and the Activity [5] was “Non-toxic”.

Work on `CC[C@@]1(O)C(=O)OCc2c1cc1n(c2=O)Cc2c-1nc1cc3c(cc1c2-c1ccc(OC(F)(F)F)cc1)OCO3` yielded an IC50 (HepG2) of 229 nM, an IC50 (A549) of 87.3 nM and an IC50 (HeLa) of 398 nM. It also gave an IC50 (HCT-116 [1]) of 196 nM.

With `CCc1c2c(nc3ccc(O)cc13)-c1cc3c(c(=O)n1C2)COC(=O)[C@]3(O)CC` [7-ETHYL-10-HYDROXYCAMPTOTHECIN] the IC50 (HepG2) was 268 nM, the IC50 (A549) was 475 nM and the IC50 (HeLa) was 234 nM. For the same compound, the IC50 (HCT-116 [1]) was 367 nM and the Activity (HCT-116 [6]) was “inactive”.

For `CC[C@@]1(O)C(=O)OCc2c1cc1n(c2=O)Cc2c-1nc1cc3c(cc1c2-c1ccc(F)c(OC)c1)OCO3`, the Activity (PDX27454 [4]) was “Active”, the Activity (PDX27454 [7]) was “Active” and the Activity (PDX27454 [8]) was “Dose-dependent-effect”. For the same compound, the Activity [5] was “Non-toxic”, the inhibition (HCT-116 [9]) was “Dose-dependent-effect” and the Activity (HCT-116 [10]) was “Dose-dependent-effect”. For the same compound, the Activity (HCT-116 [11]) was “inactive”, the viability at 0.0025 µM (HCT-116 [12]) was 84.4% and the Activity (HCT-116 [13]) was 0.64%. It also gave an Activity (HCT-116 [14]) of 10.9%, an Activity (HCT-116 [15]) of 4.13% and a viability at 0.01 µM (HCT-116 [16]) of 79%. The Activity (HCT-116 [17]) was 0.5%, the Activity (HCT-116 [18]) was 16.3% and the Activity (HCT-116 [19]) was 4.17%. For the same compound, the viability at 0.05 µM (HCT-116 [20]) was 67.5%, the Activity (HCT-116 [21]) was 0.78% and the Activity (HCT-116 [22]) was 25.9%. The Activity (HCT-116 [23]) was 5.94%, the Activity (HCT-116 [24]) was “Active” and the Activity (HCT-116 [25]) was “Active”. For the same compound, the Activity (HCT-116 [26]) was “Active”, the Activity (HCT-116 [27]) was “Active” and the Activity (HCT-116 [28]) was “Active”. For the same compound, the inhibition [29] was “Active”, the Activity (HCT-116 [6]) was “inactive” and the Activity [30] was “Active”. The Activity [31] was “Active” and the Activity [32] was “inactive”.

`CC[C@@]1(O)C(=O)OCc2c1cc1n(c2=O)Cc2c-1nc1cc3c(cc1c2-c1cccc(F)c1)OCO3` gave an IC50 (HepG2) of 155 nM, an IC50 (A549) of 40 nM and an IC50 (HeLa) of 34.7 nM. It also gave an IC50 (HCT-116 [1]) of 150 nM.
